Data taken from ChEMBL document CHEMBL5620440, “Anti-trypanosomal Lignans Isolated from Salvadoran Peperomia pseudopereskiifolia” (J Nat Prod, 2024).
Activity calls are given as the source filed them. The calls are words filed in the database; no cut-off is given here.

Columns and labels:
Trypanosoma cruzi [1] = assay: Antitrypanosomal activity against Trypanosoma cruzi Tulahuen amastigotes infected in human HT-1080 cells assessed as reduction in parasite growth by microscopic analysis; format: functional, organism-based
[2] = Cytotoxicity against human HT-1080 cells assessed reduction in cell viability; format: toxicity, cell-based
[3] = Selectivity index, ratio of CC50 for cytotoxicity for human HT-1080 cells to IC50 for antitrypanosomal activity against Trypanosoma cruzi Tulahuen infected in human HT-1080 cells; format: toxicity, cell-based; conditions: read-out: Ratio CC50/IC50
Trypanosoma cruzi [4] = assay: Potency index, ratio of benznidazole IC50 to test compound IC50 for antitrypanosomal activity against Trypanosoma cruzi Tulahuen amastigotes infected in human HT-1080 cells assessed as reduction in parasite growth by microscopic analysis; format: functional

Compound | IC50 (Trypanosoma cruzi [1]) [µM] | Activity (Trypanosoma cruzi [1]) | CC50 [2] [µM] | selectivity ratio [3] | Ratio IC50 (Trypanosoma cruzi [4])
CCOc1ccc([C@@H]2OC[C@H](C(=O)c3ccc(OC)c(OC)c3)[C@H]2COC(C)=O)cc1OC | – | inactive | – | – | –
COc1cc([C@@H]2OC[C@H]([C@H](O)c3ccc(OC)c(OC)c3)[C@H]2COC(C)=O)ccc1O | – | inactive | – | – | –
COc1cc([C@@H]2OC[C@H]([C@H](O)c3ccc(OC)c(OC)c3)[C@H]2CO)ccc1O | – | inactive | – | – | –
COc1ccc([C@@H](O)[C@H]2CO[C@@H](c3ccc(OCc4ccccc4)c(OC)c3)[C@@H]2COC(C)=O)cc1OC | 2.8 | – | > 100 | > 35.7 | –
O=C(Cn1ccnc1[N+](=O)[O-])NCc1ccccc1 [BENZNIDAZOLE] | 1.1 | – | > 100 | > 90.9 | –
COc1ccc([C@@H](O)[C@H]2CO[C@@H](c3ccc(OC)c(OC)c3)[C@@H]2CO)cc1OC | – | inactive | – | – | –

More lines, main results first:

IC50 (Trypanosoma cruzi [1]) [µM] | Compound | Activity (Trypanosoma cruzi [1]) | CC50 [2] [µM] | selectivity ratio [3] | Ratio IC50 (Trypanosoma cruzi [4])
10.5 | COc1ccc([C@@H](O)[C@H]2CO[C@@H](c3ccc(OC)c(OC)c3)[C@@H]2COC(C)=O)cc1OC | – | > 100 | > 9.52 | –
0.4 | COc1c([C@H]2OC[C@H]3[C@H]2CO[C@@H]3c2ccc3c(c2)OCO3)ccc2c1OCO2 | – | > 100 | > 250 | ~3
3.3 | CCOc1ccc([C@@H]2OC[C@H]([C@H](O)c3ccc(OC)c(OC)c3)[C@H]2COC(C)=O)cc1OC | – | > 100 | > 30.3 | –
